Assays:
B.st. spores [1] = assay: Antibiotic detection test in spiked milk, borate/succinate culture of Example 6 (Table 4); format: cell-based, Bacillus (Geobacillus) Stearothermophilus; parameters: key to Color 1 / Color 2: Color result 1 and 2 is a negative result; Color result 1 and 2 is a negative result; 3 is a borderline result; 4 and 5 is a positive result; 4 and 5 is a positive result; details: for % Pos (Color 2) / Color 2: after 16 hours at room temperature; for % Pos (Color 1) / Color 1: immediately after test completion
Protocol: BCP/Borate/Succinate Solution was prepared by adding 3.8 grams of Borate and 6 grams Succinate to 100 mL of reverse osmosis/deionized water (RO/DI Water) in 125 mL flask. 50 milligrams of BCP was added to a 50 mL conical tube and 5 mL of Borate/Succinate solution was added to the 50 milligrams BCP and mixed.
To prepare media 5 grams glucose and 1 gram Mueller Hinton Broth was dissolved in 100 mL RO/DI Water. 1.2 mL of a 0.01 mg/mL solution of trimethoprim in RO/DI Water was prepared and added to the media. A 20 mL of BCP/Borate/Succinate was added to the media and the media was sterile filtered through a 0.45 micron filter and then cooled to 4 degrees C.
Agar was prepared by combining 0.3 grams Difco Bacto-Agar (Item #0140-01), 0.225 NaCl and 17.485 RO/DI Water. The mixture was heated to 95° C. and then removed from the heat and allowed to cool to 75° C. Next 6 mL of media (prepared as described above with BCP/Tris) was added to the agar and mixed for 5 minutes. The mixture was cooled to 57° C. and 1 mL spore solution (concentration of 1 billion cfu/mL) was added and mixed together for 5 minutes. 0.200 mL was dispensed into the bottom of each of the vials.
In test operation 200 microliters of various milk sample, spiked with known concentrations of antibiotics, were pipetted into test vials and incubated for the prescribed time (in this test 2 hours 10 minutes) and prescribed temperature (64 degrees C.+/−2 degrees C.). Incubation was in the Charm I Inctronic incubator. Results were recorded immediately after test completion (Color 1) and after being left at room temperature for 16 hours (Color 2). Results listed are in parts per billion (ppb). 4 samples were run at each concentrations except for raw negative milk (16 samples) and 3 ppb pen G (2 samples) and amoxicillin (2 samples). Abbreviations are penicillin G (PenG); sulfamethazine (SMZ); sulfadimethoxine (SDM); tylosin (TY); gentamicin (G); oxytetracycline (OT); pirlimycin (Pirl); amoxicillin (Amox); ampicillin (Amp); cloxacillin (Clox); ceftiofur sodium (Ceft); cephaprin (Ceph); tilmicosin (Til); sulfadoxine (SDN); neomycin (Neo). Color result 1 and 2 is a negative result, 3 is a borderline result and 4 and 5 is a positive result.

B.st. spores [2] = assay: Antibiotic detection test in spiked milk, Trizma/succinate culture of Example 7 (Table 5); format: cell-based, Bacillus (Geobacillus) Stearothermophilus; details: for 16 hr Result / % Pos (16 hr Result): 16 hours later; for % Pos (Result) / Result: immediately after test completion
Protocol: A Trizma/Succinate solution was prepared by adding 2.5 grams Trizma Base and 6 grams Succinate to 100 mL of reverse osmosis/deionized water (RO/DI Water) in a 125 mL flask. 40 milligrams of BCP (see example 1 for BCP preparation) was then added to a 50 mL conical tube and 25 mL of the Trizma/Succinate solution was added to the 40 milligrams BCP and mixed.
The media was prepared by dissolving 5 grams glucose and 1 gram Mueller Hinton Broth in 100 mL RO/DI Water. 1.2 mL of a 0.01 mg/mL solution of trimethoprim in RO/DI water was added to the media. 20 mL of the BCP/Trizma/Succinate preparation was added to the media and the media was sterile filtered through a 0.45 micron filter and cooled to 4 degrees C.
0.3 grams Difco Bacto-Agar (Item #0140-01), 0.225 NaCl and 17 mL of RO/DI water was combined and mixed and heated the mixture to 95° C. The mixture was removed from the heat and allowed it to cool to 75° C. and then 6 mL media (with BCP/Tris) was added and mixed for 5 minutes. The mixture was cooled to 57° C. and 2 mL spore (concentration of 1 billion cfu/mL) was added and mixed for 5 minutes. 0.200 mL was dispensed into the bottom of each vial.
In test operation 200 microliters of various milk samples, spiked with known concentrations of antibiotics, were pipetted into vials and incubated for the prescribed time (in this test 2 hours 30 minutes) and prescribed temperature (64 degrees C.+/−2 degrees C.). Results were recorded immediately after test completion and 16 hours later. Incubation was in various Charm Inctronic I incubators. Concentrations listed are in parts per billion (ppb). 4 samples were run at each concentration except 16 negative samples were run and 2 samples each for 3 ppb pen G and amoxicillin. Abbreviations are pencillin G (PenG); sulfamethazine (SMZ); sulfadimethoxine (SDM); tylosin (TY); gentamicin (G); oxytetracycline (OT); pirlimycin (Pirl); amoxicillin (Amox); ampicillin (Amp); cloxacillin (Clox); ceftiofur sodium (Ceft); cephaprin (Ceph); tilmicosin (Til); sulfadoxine (SDN); neomycin (Neo).

CC1(C)S[C@@H]2[C@H](NC(=O)[C@H](N)c3ccc(O)cc3)C(=O)N2[C@H]1C(=O)O [Amox, amoxicillin]
% Pos (Color 2) (B.st. spores [1]; milk spiked at 6 ppb): 100%
Color 2 (B.st. spores [1]; milk spiked at 6 ppb): 5
% Pos (Color 1) (B.st. spores [1]; milk spiked at 6 ppb): 100%
Color 1 (B.st. spores [1]; milk spiked at 6 ppb): 5
16 hr Result (B.st. spores [2]; milk spiked at 6 ppb): Pos
% Pos (16 hr Result) (B.st. spores [2]; milk spiked at 6 ppb): 100%
% Pos (Result) (B.st. spores [2]; milk spiked at 6 ppb): 100%
Result (B.st. spores [2]; milk spiked at 6 ppb): Pos

CC1(C)S[C@@H]2[C@H](NC(=O)[C@H](N)c3ccccc3)C(=O)N2[C@H]1C(=O)O [Amp, ampicillin]
% Pos (Color 2) (B.st. spores [1]; milk spiked at 5 ppb): 100%
Color 2 (B.st. spores [1]; milk spiked at 5 ppb): 4
% Pos (Color 1) (B.st. spores [1]; milk spiked at 5 ppb): 100%
Color 1 (B.st. spores [1]; milk spiked at 5 ppb): 5
16 hr Result (B.st. spores [2]; milk spiked at 5 ppb): Pos
% Pos (16 hr Result) (B.st. spores [2]; milk spiked at 5 ppb): 100%
% Pos (Result) (B.st. spores [2]; milk spiked at 5 ppb): 100%
Result (B.st. spores [2]; milk spiked at 5 ppb): Pos

CO/N=C(\C(=O)N[C@@H]1C(=O)N2C(C(=O)O)=C(CSC(=O)c3ccco3)CS[C@H]12)c1csc(N)n1 [Ceft, ceftiofur sodium]
% Pos (Color 2) (B.st. spores [1]; milk spiked at 50 ppb): 0%
Color 2 (B.st. spores [1]; milk spiked at 50 ppb): 1
% Pos (Color 1) (B.st. spores [1]; milk spiked at 50 ppb): 0%
Color 1 (B.st. spores [1]; milk spiked at 50 ppb): 1
% Pos (Color 2) (B.st. spores [1]; milk spiked at 100 ppb): 0%
Color 2 (B.st. spores [1]; milk spiked at 100 ppb): 2
% Pos (Color 1) (B.st. spores [1]; milk spiked at 100 ppb): 0%
Color 1 (B.st. spores [1]; milk spiked at 100 ppb): 2
16 hr Result (B.st. spores [2]; milk spiked at 50 ppb): Pos
% Pos (16 hr Result) (B.st. spores [2]; milk spiked at 50 ppb): 100%
% Pos (Result) (B.st. spores [2]; milk spiked at 50 ppb): 100%
Result (B.st. spores [2]; milk spiked at 50 ppb): Pos
16 hr Result (B.st. spores [2]; milk spiked at 100 ppb): Pos
% Pos (16 hr Result) (B.st. spores [2]; milk spiked at 100 ppb): 100%
% Pos (Result) (B.st. spores [2]; milk spiked at 100 ppb): 100%
Result (B.st. spores [2]; milk spiked at 100 ppb): Pos

CC(=O)OCC1=C(C(=O)O)N2C(=O)[C@@H](NC(=O)CSc3ccncc3)[C@H]2SC1 [Ceph, cephaprin]
% Pos (Color 2) (B.st. spores [1]; milk spiked at 10 ppb): 100%
Color 2 (B.st. spores [1]; milk spiked at 10 ppb): 5
% Pos (Color 1) (B.st. spores [1]; milk spiked at 10 ppb): 100%
Color 1 (B.st. spores [1]; milk spiked at 10 ppb): 5
16 hr Result (B.st. spores [2]; milk spiked at 10 ppb): Pos
% Pos (16 hr Result) (B.st. spores [2]; milk spiked at 10 ppb): 100%
% Pos (Result) (B.st. spores [2]; milk spiked at 10 ppb): 100%
Result (B.st. spores [2]; milk spiked at 10 ppb): Pos
